According to patent US12202835B2, “Substituted aromatic ring-linked dioxinoquinazolines and dioxinoquinolines as kinase inhibitors” (BEIJING SCITECH-MQ PHARMACEUTICALS LIMITED, priority 2018, dated 2025):

Tests used:
Ba/F3 LMNA-NTRK1 cells = assay: Assay for inhibiting the proliferation of Ba/F3 LMNA-NTRK1 cells (CCK-8); type: cell-based; details: Mus musculus, BaF3
Description: In particular, the method of the assay of small molecular compounds for inhibiting cell proliferation is as follows: • 1. Cells cultured to a logarithmic growth phase (adherent cells need to be digested with trypsin and neutralized) were taken, pipetted evenly, transferred to a 15 mL centrifuge tube, and centrifuged at 1000 rpm at room temperature for 4 minutes; • 2. The supernatant was discarded; 5 mL of complete medium was added and pipetted evenly; 10 μL of cell suspension was taken out, mixed well with 10 μL of 0.4% trypan blue, and counted under a cell counter; the proportion of living cells was ensured to be above 90%; • 3. 80 μL of cell suspension per well was seeded into a 96-well plate according to the conditions shown in the attached table, and cultured overnight; in the outer 36 wells of the 96-well plate, no cells were added but only sterile water was added; only the inner 60 wells were used for cell assay and control; • 4. […] 20 μL of the corresponding compounds with different concentration gradients were added to each well of assay wells of the 96-well plate; 20 μL of complete medium was added to positive and negative control wells and shaken well; and the final concentration of DMSO in each well was 0.25%; • 6. After 72 hours of incubation, 10 μL of CCK-8 reagent was added to each well and further incubated at 37° C. for 1-2 hours; and the OD value was read at 450 nm; • 7. Cell survival rate (%)=[(As−Ab)/(Ac−Ab)]*100% • As: Assay well (medium containing cells, CCK-8, compound), • Ac: Control well (medium containing cells, CCK-8), • Ab: Blank well (CCK-8, medium without cell and compound), • 8. The values were imported into Graphpad Prism 5 software for IC50 calculation.

TRKA kinase = TRKA kinase (Homo sapiens (Human), UniProt P04629); assay: Assay of small molecular compounds for inhibiting the activity of TRKA kinase (LANCE TR-FRET); type: biochemical
Procedure, shortened: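 TRKA (supplied as 2 nM 2× solution) was pre-reacted with compounds for 5 min at room temperature before a 4× ULight-TK peptide/ATP mix (400 nM/40 μM) started the 60-min dark reaction at 1% DMSO. After stop and 60-min detection, TR-FRET was read.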

MER kinase = MER kinase (Homo sapiens (Human), UniProt Q12866); assay: Assay of small molecular compounds for inhibiting the activity of MER kinase (LANCE TR-FRET); type: biochemical
Procedure, shortened: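 LANCE TR-FRET readout of ULight-poly GT phosphorylation by MER kinase; compound final range 0.042-2500 nM, 3-fold steps, 5 min enzyme preincubation. Reaction 60 min at room temperature in the dark with substrate/ATP (4× at 200 nM/20 μM), 1% DMSO, then stopped and developed 60 min; IC50 by curve fit.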

c-MET kinase = c-MET kinase (Homo sapiens (Human), UniProt P08581); assay: Assay of small molecular compounds for inhibiting the activity of c-MET kinase (LANCE TR-FRET); type: biochemical; details: read-out: CMET IC50
Procedure, shortened: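 Eleven final concentrations from 2500 nM down to 0.042 nM, in 4% DMSO, were tested against human c-MET (2× stock 2 nM), with compound and enzyme premixed for 5 min. The phosphorylation reaction used 4× stock of 400 nM ULight-JAK-1 peptide and 40 μM ATP for 60 min at room temperature, then stop and detection steps. TR-FRET percent inhibition against positive and negative controls gave the IC50.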

Ba/F3-AXL cells = assay: Assay for inhibiting the proliferation of Ba/F3-AXL cells (CCK-8); type: cell-based; details: 72 hours of incubation, medium with 100 ng/mL hGas6, CCK-8
Description: The values were then imported into Graphpad Prism 5 software for curve fitting, and IC50 was calculated.

VEGFR-2 kinase = VEGFR-2 kinase (Homo sapiens (Human), UniProt P35968); assay: Assay of small molecular compounds for inhibiting the activity of VEGFR-2 kinase (LANCE TR-FRET); type: biochemical; details: read-out: VEGFR2 IC50
Description: The assay is based on the LANCE TR-FRET technology of Perkin Elmer Inc., and the assay method is as follows: • 1. Dilution of compounds: a total of 11 concentrations were obtained using a 3-fold gradient dilution from the highest concentration of 2500 nM (the maximum final concentration of the drug used in this assay was 2500 nM, and the minimum final concentration was 0.042 nM). • 2. 2.5 μL of the gradient-diluted compounds were taken with a transfer pipette to a 384-well plate. • 3. Addition of enzyme: 5 μL of 2×VEGFR2 kinase solution (with a concentration of 0.5 nM) was taken with a transfer pipette to the corresponding reaction well of the 384-well plate, mixed well and pre-reacted at room temperature for 30 minutes. • 4. 2.5 μL 4× Ultra ULight™-JAK-1 (Tyr1023) Peptide (with a concentration of 200 nM)/ATP (with a concentration of 40 μM) mixture was taken with a transfer pipette to the corresponding reaction well of the 384-well plate. • 5. Negative control: 2.5 μL/well 4× substrate/ATP mixture and 7.5 μL 1× Kinase Assay Buffer were added to the wells of the 384-well plate. • 6. Positive control: 2.5 μL/well 4× substrate/ATP mixture, 2.5 μL/well 1× Kinase Assay Buffer containing 16% DMSO, and 5 μL/well 2×VEGFR-2 kinase solution were added to the 384-well plate. The final concentration of DMSO in the reaction system was 4%. • 7. The mixture was mixed well and then centrifuged and reacted at room temperature in dark for 60 min. • 8. Termination of the enzymatic reaction: 5 μL of 4× stop solution was taken with a transfer pipette to the wells of the 384-well plate, mixed and then centrifuged, and reacted at room temperature for 5 min. • 9. Development of the reaction: 5 μL of 4× detection solution was taken with a transfer pipette to the wells of the 384-well plate for color development, and the mixture was mixed and then centrifuged and reacted at room temperature for 60 min. • 10. The 384-well plate was placed into the Envision plate reader and the signal was detected using the appropriate program. • 11. Analysis and processing of the raw data: The drug concentrations and the corresponding inhibition rates were input into GraphPad Prism5 for calculation, and the inhibition rate of the compounds were calculated as follows: inhibition rate (%)=(reading of positive well−reading of experimental well)/(reading of positive control well−reading of negative control well)×100%. Processing with GraphPad Prism5 software yielded the corresponding IC50 values (the concentration of the compound at which 50% of the highest inhibition of the enzyme is achieved).

Chain of MER kinase (Q12866 21-999): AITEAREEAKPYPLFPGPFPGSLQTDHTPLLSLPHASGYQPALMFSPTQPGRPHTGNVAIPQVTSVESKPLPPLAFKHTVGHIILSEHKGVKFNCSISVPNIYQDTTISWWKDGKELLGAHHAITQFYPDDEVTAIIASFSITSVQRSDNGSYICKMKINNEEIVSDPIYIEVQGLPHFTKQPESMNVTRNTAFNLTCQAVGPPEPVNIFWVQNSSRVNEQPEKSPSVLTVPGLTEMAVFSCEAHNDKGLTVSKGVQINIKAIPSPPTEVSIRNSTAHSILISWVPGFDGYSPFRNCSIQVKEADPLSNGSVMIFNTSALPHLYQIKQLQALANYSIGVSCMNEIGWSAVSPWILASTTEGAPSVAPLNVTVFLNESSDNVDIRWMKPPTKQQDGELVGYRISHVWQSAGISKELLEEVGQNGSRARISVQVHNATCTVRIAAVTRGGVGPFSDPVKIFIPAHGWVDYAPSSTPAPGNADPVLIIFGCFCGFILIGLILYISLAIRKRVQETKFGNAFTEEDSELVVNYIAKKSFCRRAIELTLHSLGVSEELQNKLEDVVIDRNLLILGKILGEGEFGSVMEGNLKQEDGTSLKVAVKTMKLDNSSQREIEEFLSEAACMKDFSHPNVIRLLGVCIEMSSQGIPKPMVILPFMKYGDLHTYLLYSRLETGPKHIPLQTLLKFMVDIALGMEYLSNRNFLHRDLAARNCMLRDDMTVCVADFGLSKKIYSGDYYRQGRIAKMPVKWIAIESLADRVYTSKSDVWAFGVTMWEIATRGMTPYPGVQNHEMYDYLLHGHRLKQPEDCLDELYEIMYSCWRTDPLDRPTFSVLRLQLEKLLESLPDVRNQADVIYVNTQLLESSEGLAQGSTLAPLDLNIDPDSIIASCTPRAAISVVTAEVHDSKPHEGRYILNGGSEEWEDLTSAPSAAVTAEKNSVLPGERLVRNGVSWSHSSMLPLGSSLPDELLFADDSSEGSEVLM
Chain of TRKA kinase (P04629 33-796): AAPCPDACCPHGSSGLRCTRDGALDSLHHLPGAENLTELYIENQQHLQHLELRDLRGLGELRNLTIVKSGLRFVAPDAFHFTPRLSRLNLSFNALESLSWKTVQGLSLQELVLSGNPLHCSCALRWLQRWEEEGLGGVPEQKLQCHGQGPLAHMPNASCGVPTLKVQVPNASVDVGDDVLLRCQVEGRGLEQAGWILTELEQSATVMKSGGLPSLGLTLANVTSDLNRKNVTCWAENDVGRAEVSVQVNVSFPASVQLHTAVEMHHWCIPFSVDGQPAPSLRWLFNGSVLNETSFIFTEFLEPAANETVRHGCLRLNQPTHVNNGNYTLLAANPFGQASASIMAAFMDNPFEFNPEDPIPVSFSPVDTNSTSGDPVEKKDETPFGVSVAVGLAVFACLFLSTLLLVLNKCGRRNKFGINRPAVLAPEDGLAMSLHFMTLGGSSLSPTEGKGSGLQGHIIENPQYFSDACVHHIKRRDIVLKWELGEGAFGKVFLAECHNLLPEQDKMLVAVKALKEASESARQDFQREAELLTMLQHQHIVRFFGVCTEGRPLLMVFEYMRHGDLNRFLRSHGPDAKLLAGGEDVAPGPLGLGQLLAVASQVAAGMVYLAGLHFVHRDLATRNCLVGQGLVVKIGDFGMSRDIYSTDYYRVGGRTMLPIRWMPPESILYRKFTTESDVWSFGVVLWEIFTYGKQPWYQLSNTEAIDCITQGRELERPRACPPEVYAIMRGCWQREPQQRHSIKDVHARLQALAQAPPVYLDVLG
Chain of VEGFR-2 kinase (P35968 20-1356): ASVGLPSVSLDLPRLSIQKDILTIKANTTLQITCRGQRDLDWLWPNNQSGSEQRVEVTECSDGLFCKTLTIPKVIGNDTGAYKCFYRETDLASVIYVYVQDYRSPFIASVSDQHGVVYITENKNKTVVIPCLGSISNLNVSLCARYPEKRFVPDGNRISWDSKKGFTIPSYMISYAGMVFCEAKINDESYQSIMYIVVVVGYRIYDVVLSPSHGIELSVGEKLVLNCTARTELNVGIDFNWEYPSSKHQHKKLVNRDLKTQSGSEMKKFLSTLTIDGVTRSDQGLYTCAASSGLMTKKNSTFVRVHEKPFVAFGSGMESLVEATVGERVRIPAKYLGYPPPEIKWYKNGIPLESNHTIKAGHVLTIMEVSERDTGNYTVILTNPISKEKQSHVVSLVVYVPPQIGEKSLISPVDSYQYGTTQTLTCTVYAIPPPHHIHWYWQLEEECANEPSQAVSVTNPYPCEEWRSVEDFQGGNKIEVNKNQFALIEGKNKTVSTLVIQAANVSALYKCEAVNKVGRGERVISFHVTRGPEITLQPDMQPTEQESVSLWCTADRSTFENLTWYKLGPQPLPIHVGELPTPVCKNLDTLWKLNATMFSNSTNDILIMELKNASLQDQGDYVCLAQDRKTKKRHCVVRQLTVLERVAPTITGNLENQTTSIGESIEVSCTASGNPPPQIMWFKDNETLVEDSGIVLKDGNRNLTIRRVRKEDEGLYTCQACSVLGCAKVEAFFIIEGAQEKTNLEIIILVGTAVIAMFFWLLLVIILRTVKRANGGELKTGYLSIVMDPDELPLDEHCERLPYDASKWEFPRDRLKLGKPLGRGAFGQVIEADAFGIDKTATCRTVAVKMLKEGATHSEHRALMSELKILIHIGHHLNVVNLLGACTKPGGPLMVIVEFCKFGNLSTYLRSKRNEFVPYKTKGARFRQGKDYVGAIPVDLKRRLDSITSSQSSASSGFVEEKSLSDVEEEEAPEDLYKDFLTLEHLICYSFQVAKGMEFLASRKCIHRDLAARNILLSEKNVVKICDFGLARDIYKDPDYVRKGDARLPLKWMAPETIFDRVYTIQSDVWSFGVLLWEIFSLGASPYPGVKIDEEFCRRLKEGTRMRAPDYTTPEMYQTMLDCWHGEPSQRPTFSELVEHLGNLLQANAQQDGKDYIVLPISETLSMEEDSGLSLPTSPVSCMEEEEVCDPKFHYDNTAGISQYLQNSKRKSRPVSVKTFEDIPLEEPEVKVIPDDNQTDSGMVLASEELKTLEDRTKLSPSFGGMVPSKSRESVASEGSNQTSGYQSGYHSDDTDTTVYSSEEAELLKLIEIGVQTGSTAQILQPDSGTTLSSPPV
Chain of c-MET kinase (P08581 25-1390): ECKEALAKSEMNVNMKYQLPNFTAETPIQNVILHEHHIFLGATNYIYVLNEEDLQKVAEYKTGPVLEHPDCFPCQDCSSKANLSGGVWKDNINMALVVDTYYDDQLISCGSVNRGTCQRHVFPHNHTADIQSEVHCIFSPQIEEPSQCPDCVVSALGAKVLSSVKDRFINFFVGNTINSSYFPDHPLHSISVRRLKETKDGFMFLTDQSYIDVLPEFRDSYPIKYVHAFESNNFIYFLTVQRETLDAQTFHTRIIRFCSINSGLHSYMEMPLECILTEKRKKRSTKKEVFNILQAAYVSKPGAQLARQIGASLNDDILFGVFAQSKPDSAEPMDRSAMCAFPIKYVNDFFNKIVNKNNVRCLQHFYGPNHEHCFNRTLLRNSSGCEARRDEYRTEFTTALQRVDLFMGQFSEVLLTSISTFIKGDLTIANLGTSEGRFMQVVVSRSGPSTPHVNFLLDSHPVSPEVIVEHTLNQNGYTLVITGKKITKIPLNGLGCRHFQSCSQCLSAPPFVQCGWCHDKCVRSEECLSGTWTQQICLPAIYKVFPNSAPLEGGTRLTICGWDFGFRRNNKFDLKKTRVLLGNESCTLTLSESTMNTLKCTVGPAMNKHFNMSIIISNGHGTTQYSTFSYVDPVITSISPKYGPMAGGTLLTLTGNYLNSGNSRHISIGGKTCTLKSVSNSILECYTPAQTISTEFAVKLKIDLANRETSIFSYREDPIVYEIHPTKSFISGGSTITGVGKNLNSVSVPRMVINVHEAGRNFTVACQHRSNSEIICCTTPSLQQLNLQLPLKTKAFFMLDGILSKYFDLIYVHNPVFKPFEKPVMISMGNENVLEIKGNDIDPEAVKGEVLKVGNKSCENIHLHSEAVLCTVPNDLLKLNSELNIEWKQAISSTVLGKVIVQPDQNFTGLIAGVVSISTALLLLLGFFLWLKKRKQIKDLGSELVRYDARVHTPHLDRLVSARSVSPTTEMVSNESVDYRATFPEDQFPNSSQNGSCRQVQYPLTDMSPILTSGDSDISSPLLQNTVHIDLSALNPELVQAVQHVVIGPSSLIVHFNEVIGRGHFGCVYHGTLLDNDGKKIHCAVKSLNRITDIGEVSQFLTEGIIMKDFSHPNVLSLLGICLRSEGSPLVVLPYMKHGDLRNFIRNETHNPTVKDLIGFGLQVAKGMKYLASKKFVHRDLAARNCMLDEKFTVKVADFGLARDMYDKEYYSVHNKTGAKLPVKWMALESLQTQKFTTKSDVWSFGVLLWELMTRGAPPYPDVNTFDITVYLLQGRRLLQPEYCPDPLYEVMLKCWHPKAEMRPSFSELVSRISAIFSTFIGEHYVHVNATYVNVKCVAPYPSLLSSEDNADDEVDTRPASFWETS

IC50 (Ba/F3 LMNA-NTRK1 cells)	IC50 (TRKA kinase)	IC50 (MER kinase)	IC50 (c-MET kinase)	IC50 (Ba/F3-AXL cells)	IC50 (VEGFR-2 kinase)	SMILES
	50 to 500 nM	≤ 50 nM	50 to 500 nM	< 50 nM		CCOc1cc2nccc(Oc3ccc(NC(=O)c4cn(C(C)C)c(=O)n(-c5ccc(F)cc5)c4=O)cc3F)c2c2c1OCCO2 [Example 87, N-(3-fluoro-4-((5-ethoxy-2,3-dihydro-[1,4]dioxino[2,3-f]quinolin-10-yl)oxy)phenyl)-3-(4-fluorophenyl)-1-isopropyl-2,4-dioxo-1,2,3,4-tetrahydropyrimidine-5-carboxamide]
	500 to 5000 nM	≤ 50 nM	≤ 50 nM	< 50 nM		COc1cc2nccc(Oc3ccc(NC(=O)c4cn(C(C)C)c(=O)n(-c5cccc(F)c5)c4=O)cc3F)c2c2c1OCCO2 [Example 109, N-(3-fluoro-4-((5-methoxy-2,3-dihydro-[1,4]dioxino[2,3-f]quinolin-10-yl)oxy)phenyl)-3-(3-fluorophenyl)-1-isopropyl-2,4-dioxo-1,2,3,4-tetrahydropyrimidine-5-carboxamide]
< 50 nM	< 50 nM	≤ 50 nM		< 50 nM	> 5000 nM	COc1cc2nccc(Oc3ccc(NC(=O)c4cccn(-c5ccc(F)cc5)c4=O)c(Cl)c3)c2c2c1OCCO2 [Example 123, N-(2-chloro-4-((5-methoxy-2,3-dihydro-[1,4]dioxino[2,3-f]quinolin-10-yl)oxy)phenyl)-1-(4-fluorophenyl)-2-oxo-1,2-dihydropyridine-3-carboxamide]
< 50 nM	< 50 nM	≤ 50 nM		< 50 nM	500 to 5000 nM	COc1cc2nccc(Oc3ccc(NC(=O)c4c(OC)ccn(-c5ccc(F)cc5)c4=O)c(Cl)c3)c2c2c1OCCO2 [Example 124, N-(2-chloro-4-((5-methoxy-2,3-dihydro-[1,4]dioxino[2,3-f]quinolin-10-yl)oxy)phenyl)-1-(4-fluorophenyl)-4-methoxy-2-oxo-1,2-dihydropyridine-3-carboxamide]

Continued, compound first:

SMILES	IC50 (Ba/F3 LMNA-NTRK1 cells)	IC50 (TRKA kinase)	IC50 (MER kinase)	IC50 (c-MET kinase)	IC50 (Ba/F3-AXL cells)	IC50 (VEGFR-2 kinase)
Cc1cc(F)ccc1-n1ccc(C(=O)Nc2ccc(Oc3ccnc4cc(OCCCN5CCOCC5)c5c(c34)OCCO5)c(F)c2)n1 [Example 26, 1-(4-fluoro-2-methylphenyl)-N-(3-fluoro-4-((5-(3-morpholinopropoxy)-2,3-dihydro-[1,4]dioxino[2,3-f]quinolin-10-yl)oxy)phenyl)-1H-pyrazole-3-carboxamide]	< 50 nM	< 50 nM	50 to 500 nM	≤ 50 nM	< 50 nM	
CCOc1cn(-c2ccc(F)cc2C)nc1C(=O)Nc1ccc(Oc2ccnc3cc(OCCCN4CCOCC4)c4c(c23)OCCO4)c(F)c1 [Example 28, 1-(4-fluoro-2-methylphenyl)-N-(3-fluoro-4-((5-(3-morpholinopropoxy)-2,3-dihydro-[1,4]dioxino[2,3-f]quinolin-10-yl)oxy)phenyl)-4-ethoxy-1H-pyrazole-3-carboxamide]	< 50 nM	< 50 nM	≤ 50 nM	≤ 50 nM	< 50 nM	
CC(C)n1cc(C(=O)Nc2ccc(Oc3ccnc4cc(OCC#N)c5c(c34)OCCO5)c(F)c2)c(=O)n(-c2ccc(F)cc2)c1=O [Example 81, N-(3-fluoro-4-((5-(cyanomethoxy)-2,3-dihydro-[1,4]dioxino[2,3-f]quinolin-10-yl)oxy)phenyl)-3-(4-fluorophenyl)-1-isopropyl-2,4-dioxo-1,2,3,4-tetrahydropyrimidine-5-carboxamide]		500 to 5000 nM	≤ 50 nM	50 to 500 nM	< 50 nM	
CC(C)n1cc(C(=O)Nc2ccc(Oc3ccnc4cc(OCCCC#N)c5c(c34)OCCO5)c(F)c2)c(=O)n(-c2ccc(F)cc2)c1=O [Example 82, N-(3-fluoro-4-((5-(3-cyanopropoxy)-2,3-dihydro-[1,4]dioxino[2,3-f]quinolin-10-yl)oxy)phenyl)-3-(4-fluorophenyl)-1-isopropyl-2,4-dioxo-1,2,3,4-tetrahydropyrimidine-5-carboxamide]		50 to 500 nM	≤ 50 nM	50 to 500 nM	< 50 nM	
CC(C)n1cc(C(=O)Nc2ccc(Oc3ccnc4cc(OCCCCCCN(C)C)c5c(c34)OCCO5)c(F)c2)c(=O)n(-c2ccc(F)cc2)c1=O [Example 85, N-(3-fluoro-4-((5-((6-dimethylamino)hexyloxy)-2,3-dihydro-[1,4]dioxino[2,3-f]quinolin-10-yl)oxy)phenyl)-3-(4-fluorophenyl)-1-isopropyl-2,4-dioxo-1,2,3,4-tetrahydropyrimidine-5-carboxamide]	< 50 nM			50 to 500 nM	< 50 nM	50 to 500 nM
